# Patent US6149912A (priority 1998, dated 2000)
# Read-outs that look alike come from different tables or passages of the source.
# Assays:
# [1] = in vivo; cited from earlier work
# mice = details: cited from earlier work
# [2] = LD50 (acute toxicity) in mice; details: mouse, in vivo, 0.03-0.3 mg/kg vs LD50 42 mg/kg, read-out: effective dose relative to LD50 (times lower)
# S. typhimurium SL1344 [3] = format: in vivo, Salmonella typhimurium (in CF-1 mice); details: for survival, illness, weight loss and infection after multiple treatment (in words): multiple i.p. treatment, 5 days after infection / 12 day observation; for animals protected against massive doses: single or multiple injections, 25 LD50 i.p.; for protective activity against bacterial infection (in words): glycoalkaloid vs aglycon, 8 LD50 i.p.
# S. typhimurium = details: mouse, in vivo; cited from earlier work
# S. typhimurium SL1344 [4] = test system: S. typhimurium SL1344; parameters: species or system Salmonella typhimurium (in CF-1 mice); details: mouse, in vivo
# [5] = 1 μg (or 0.5 μg + 0.5 μg) i.p. 3 times every other day before i.p. challenge (3.5 × 10^3 CFU, 25 LD50), 5 days post challenge
# [6] = 1 μg (or 0.5 μg + 0.5 μg) i.p. 3 times every other day before i.p. challenge (25 LD50), 5 days post challenge, p < 0.001 vs control
# [7] = single 1 μg dose five days prior to challenge with 25 LD50
# [8] = solanine 1 μg, solanidine or diosgenin 0.5 μg/mouse, inguinal pocket, 5 days before i.p. challenge (1.2 × 10^3 CFU, 8 LD50), 5 days post challenge
# [9] = solanine 1 μg, solanidine or diosgenin 0.5 μg/mouse, inguinal pocket, 5 days before i.p. challenge (8 LD50), 5 days post challenge
SMILES,poisoning [1],LD50 (mice),Survival rate (S. typhimurium SL1344 [3]; [5]),Liver Culture (S. typhimurium SL1344 [3]; [6]),Spleen Culture (S. typhimurium SL1344 [3]; [6]),"survival, illness, weight loss and infection after multiple treatment (in words) (S. typhimurium SL1344 [3]; 25 LD50)",Survival rate (S. typhimurium SL1344 [3]; [7]),animals protected against massive doses (S. typhimurium SL1344 [3]),protective activity against bacterial infection (in words) (S. typhimurium SL1344 [3]),Survival rate (S. typhimurium SL1344 [3]; [8]),Liver Culture (S. typhimurium SL1344 [3]; [9]),Spleen Culture (S. typhimurium SL1344 [3]; [9]),further results
C[C@H]1CC[C@@H]2[C@@H](C)[C@H]3[C@H](C[C@H]4[C@@H]5CC=C6C[C@@H](O[C@@H]7O[C@H](CO)[C@@H](O[C@@H]8O[C@@H](C)[C@H](O)[C@@H](O)[C@H]8O)[C@H](O)[C@H]7O[C@@H]7O[C@@H](C)[C@H](O)[C@@H](O)[C@H]7O)CC[C@]6(C)[C@H]5CC[C@]34C)N2C1 [chaconine],can cause poisoning,42 mg/kg,8/8,0.12 ± 0.09 CFU/500 mg × 10^6,0.03 ± 0.01 CFU/100 mg × 10^6,no signs of illness or weight loss during a 12 day observation period,~75%,sixty to a hundred percent of the animals were protected,,,,,LD50 (mice; listed as Chaconine): 40 to 50 mg/kg; therapeutic index (LD50 / effective dose) [2]: 100 to 1000
"C[C@@H]1CC[C@@]2(OC1)O[C@H]1C[C@H]3[C@@H]4CC=C5C[C@@H](O)CC[C@]5(C)[C@H]4CC[C@]3(C)[C@H]1[C@@H]2C [diosgenin, reference compound]",,,,,,,,,Neither solanidine nor diosgenin possessed any protective activity,4/10,8.5 ± 3.3 CFU/500 mg × 10^6,4.8 ± 1.8 CFU/100 mg × 10^6,
CC(=O)N[C@H]1C(O)O[C@H](CO)[C@@H](O)[C@@H]1O[C@H](C)C(=O)N[C@@H](C)C(=O)N[C@H](CCC(=O)O)C(N)=O (some centres unmarked) [muramyldipeptide],,,,,,,,,,,,,mice protected (S. typhimurium): 50%
"C[C@H]1CC[C@@H]2[C@@H](C)[C@H]3[C@H](C[C@H]4[C@@H]5CC=C6C[C@@H](O)CC[C@]6(C)[C@H]5CC[C@]34C)N2C1 [solanidine, reference compound]",,,,,,,,,Neither solanidine nor diosgenin possessed any protective activity,3/10,5.3 ± 2.4 CFU/500 mg × 10^6,1.7 ± 0.6 CFU/100 mg × 10^6,
C[C@H]1CC[C@@H]2[C@@H](C)[C@H]3[C@H](C[C@H]4[C@@H]5CC=C6C[C@@H](O[C@@H]7O[C@H](CO)[C@H](O)[C@H](O[C@@H]8O[C@H](CO)[C@@H](O)[C@H](O)[C@H]8O)[C@H]7O[C@@H]7O[C@@H](C)[C@H](O)[C@@H](O)[C@H]7O)CC[C@]6(C)[C@H]5CC[C@]34C)N2C1 [solanine],can cause poisoning,42 mg/kg,8/8,0.08 ± 0.07 CFU/500 mg × 10^6,0.08 ± 0.02 CFU/100 mg × 10^6,no signs of illness or weight loss during a 12 day observation period,approximately 40%,sixty to a hundred percent of the animals were protected,only solanine was able to effectively protect mice against the bacterial infection,9/10,0.8 ± 0.5 CFU/500 mg × 10^6,0.8 ± 0.5 CFU/100 mg × 10^6,"LD50 (mice; listed as Solanine): 40 to 50 mg/kg; Fecal Culture (S. typhimurium SL1344 [4]): 20.0 ± 3.5; Liver Culture (S. typhimurium SL1344 [4]): 0.3 ± 0.1; Spleen Culture (S. typhimurium SL1344 [4]): 2.0 ± 0.2; Survival rate (S. typhimurium SL1344 [4]): 5/5; animals with enhanced resistance to infection (FIG. 1) (S. typhimurium SL1344 [3]; single 0.1, 1.0 or 10.0 μg, challenge (25 LD50) 1, 7 or 14 days later): 40-70%; duration of enhanced host resistance (S. typhimurium SL1344 [3]; single treatment, 1.0 and 10.0 μg, 25 LD50): at least 2 weeks"
